In series [1] the test system is RAW264.7. In words: Cytotoxicity against mouse RAW264.7 cells at antiinflammatory IC50 level by MTT assay. It is filed as cell-based. (Tetrazolium assays rely on reduction of a dye to a coloured formazan, in cell work by metabolically active cells.)
The subject of series [2] is RAW264.7. In words: Antiinflammatory activity in mouse RAW264.7 cells assessed as inhibition of LPS-induced NO production pretreated for 30 mins before LPS challenge measured 24 hrs after LPS challenge by Griess reaction method. It is filed as functional, cell-based. A general note: Griess reagent forms a coloured azo dye with nitrite.

For orientation: IC50 means the concentration that gives 50% inhibition. Turning to `C[C@@H]1C[C@@H]2OC(=O)[C@H](C)[C@H]2[C@H](O)[C@]2(C)C(=O)CC[C@@H]12`, in series [1], the Activity entry is recorded as “Non-toxic”. Also, the 50% inhibitory concentration (IC50) in series [2] was 20.3 µM. Taken in the same sequence, the figures for `C=C1C[C@H]2OC(=O)C(=C)[C@H]2C[C@@H]2[C@@H]1CC[C@@]2(C)O` were “Non-toxic” and 3.94 µM. With `C=C1C(=O)O[C@H]2CC(=C)[C@H]3CC[C@@](C)(O)[C@@H]3[C@@H](O)[C@H]12`, in series [1], the Activity result was “Non-toxic”. Besides, the IC50 in series [2] worked out at 0.29 µM. Taken in the same sequence, the figures for `C=C1C(=O)O[C@H]2C=C(C)[C@H]3CC[C@@](C)(O)[C@@H]3[C@@H](O)[C@H]12` were “Non-toxic” and 0.13 µM.

As to `C=C(CCCOC(=O)CCCCCCC/C=C\C/C=C\CCCCC)[C@@H]1CC(C)(C)[C@H]1CCC(C)=O`, the Activity result in series [1] is on record as “Non-toxic”. In addition, in series [2], the IC50 was determined as 35.5 µM. In the same order, the values of `C=C1C(=O)O[C@@H]2C[C@@]3(C)O[C@@H]3CC[C@@]3(C)O[C@H]3C[C@@H]12` are “Non-toxic” and 6.4 µM.

`C=C1C(=O)O[C@@H]2C[C@@]3(C)[C@@H](O)C[C@@H](OC(=O)C=C(C)C)C(=C)[C@@H]3C[C@H]12`: the Activity entry in series [1] is reported as “Non-toxic”. In series [2], the IC50 stood at 4.7 µM. With `C=C1C(=O)O[C@H]2C[C@@H](C)C(CCC(C)O)=CC[C@H]12` (some centres not stated), the Activity entry in series [1] is reported as “Non-toxic”. Further, the IC50 in series [2] was 0.87 µM. Taken in the same sequence, the figures for `C=C1C(=O)O[C@@H]2C[C@H](C)C(CCC(C)OC(C)=O)=CC[C@H]12` (some centres not stated) were “Non-toxic” and 0.81 µM. In the same order, the values of `CC(=O)CCC1=C[C@@H](O)[C@@H]2[C@H](C)C(=O)O[C@@H]2C[C@@H]1C` are “Non-toxic” and 21.9 µM. Taken in the same sequence, the figures for `C=C1C(=O)O[C@@H]2C[C@H](C)[C@]3(CCC(C)O)O[C@@H]3C[C@H]12` (some centres not stated) were “Non-toxic” and 18.9 µM. Consider `C[C@@H]1C[C@@H]2OC(=O)[C@H](C)[C@H]2C[C@]2(C)C(=O)CC[C@@H]12`, for which the Activity result in series [1] is reported as “Non-toxic”. Moreover, the IC50 in series [2] was 10.8 µM. Taken in the same sequence, the figures for `C=C1C(=O)O[C@H]2C[C@@H](C)[C@@H]3CC[C@H](O)[C@@]3(C)[C@@H](OC(C)=O)[C@H]12` were “Non-toxic” and 0.36 µM. Take `C=C1C(=O)O[C@H]2C[C@@H](C)[C@@H]3CC[C@H](OC(C)=O)[C@@]3(C)[C@@H](O)[C@H]12`: in series [1], the Activity entry is “Non-toxic”. Also, the IC50 in series [2] worked out at 2.05 µM. Take `C=C1C[C@@H]2OC(=O)[C@H](C)[C@H]2C[C@@H]2[C@@H]1CC[C@@]2(C)O`: the Activity result in series [1] was “Non-toxic”. In series [2], the IC50 turned out to be 41.2 µM. Taken in the same sequence, the figures for `C=C1C[C@@H]2OC(=O)[C@@H](C)[C@H]2C[C@@H]2[C@@H]1CC[C@@]2(C)O` were “Non-toxic” and 19.5 µM.

With `C=C1C(=O)O[C@H]2C[C@H](C)[C@@H]3CC[C@@]4(C)O[C@@]34C[C@H]12`, the Activity entry in series [1] is “Non-toxic”. Besides, the IC50 in series [2] came out at 0.11 µM.

For `C=C1C[C@H]2OC(=O)C(=C)[C@H]2C[C@@H]2[C@@H]1CC[C@]2(C)O`, the Activity entry in series [1] is given as “Non-toxic”. For the same compound, the IC50 in series [2] amounted to 7.3 µM. Take `C=C1C(=O)O[C@@H]2C[C@@]3(C)[C@@H](O)C[C@@H](OC(=O)C(C)C)C(=C)[C@@H]3C[C@H]12`: in series [1], the Activity result was “Non-toxic”. In series [2], the IC50 turned out to be 9.12 µM. `C=C1C(=O)O[C@@H]2C[C@H](C)C(CCC(C)O)=CC[C@H]12` (some centres not stated): the Activity entry in series [1] is listed as “Non-toxic”. Besides, the IC50 in series [2] was found to be 5.48 µM. Regarding `CC(=O)CCC1=CC[C@@H]2[C@H](C)C(=O)O[C@@H]2C[C@@H]1C`, in series [1], the Activity result is reported as “Non-toxic”. Further, the IC50 in series [2] stood at 64.9 µM.

`C=C1C(=O)O[C@@H]2C[C@@H](C)[C@@H]3CCC(=O)[C@@]3(C)C[C@H]12`: the Activity entry in series [1] is “Non-toxic”. The IC50 in series [2] was found to be 0.4 µM. Taken in the same sequence, the figures for `C=C1C(=O)O[C@H]2C=C(C)[C@@H]3CC[C@](C)(O)[C@@H]3C[C@H]12` [4-EPI-ISOINUVISCOLIDE] were “Non-toxic” and 5.94 µM. Taken in the same sequence, the figures for `C=C1C(=O)O[C@H]2C[C@@H](C)[C@@H]3CCC(=O)[C@@]3(C)[C@@H](O)[C@H]12` [CARPESIOLIN] were “Non-toxic” and 2.18 µM. As for `CC(=O)O[C@H]1[C@H]2[C@H](C[C@@H](C)[C@@H]3CCC(=O)[C@]31C)OC(=O)[C@@H]2C` [DIHYDROERGOLIDE], in series [1], the Activity result is listed as “Non-toxic”. The IC50 in series [2] worked out at 8.34 µM.

As for `C=C1C(=O)O[C@H]2C[C@@H](C)[C@@H]3CCC(=O)[C@@]3(C)[C@@H](OC(C)=O)[C@H]12` [ERGOLIDE], in series [1], the Activity result was “Non-toxic”. The IC50 in series [2] was found to be 0.07 µM. Taken in the same sequence, the figures for `C=C1C(=O)O[C@@H]2C[C@@]3(C)[C@@H](O)C[C@@H](O)C(=C)[C@@H]3C[C@H]12` [GRANILIN] were “Non-toxic” and 0.11 µM. In the same order, the values of `C=C1C(=O)O[C@@H]2C[C@@]3(C)CCC[C@H](C)C3=C[C@H]12` [HELENINE] are “Non-toxic” and 1.17 µM. As for `C=C1C(=O)O[C@H]2CC(=C)[C@H]3CC[C@@](C)(O)[C@@H]3C[C@H]12` [INUVISCOLIDE], the Activity result in series [1] is “Non-toxic”. The IC50 in series [2] turned out to be 9.64 µM. `N=C(N)NN` [PIMAGEDINE]: the IC50 in series [2] came out at 0.2 µM.

Turning to `C=C1C(=O)O[C@H](CC(C)=O)[C@@H]1CC1=C(C)CCC1=O` [POSTIA SECOGUAIANOLIDE], the Activity result in series [1] is on record as “Non-toxic”. Further, the IC50 in series [2] stood at 15.8 µM. In the case of `C=C1C(=O)O[C@H]2C[C@@H](C)[C@@H]3CC[C@H](O)[C@@]3(C)C[C@H]12` [PSEUDOGUAIANOLIDE], the Activity result in series [1] was “Non-toxic”. The IC50 in series [2] was 9.89 µM. In the same order, the values of `C=C1C(=O)O[C@@H]2C[C@H](C)C(CCC(C)=O)=CC[C@H]12` [TOMENTOSIN] are “Non-toxic” and 7.14 µM.

Turning to `C=C1C(=O)O[C@H]2C[C@H](C)[C@@H]3CC(=O)C(C)=C3C[C@H]12` [XERANTOLIDE], the Activity entry in series [1] is reported as “Non-toxic”. Also, the IC50 in series [2] is 12.9 µM.

These data come from ChEMBL document CHEMBL1909625, “Sesquiterpene lactones from Inula falconeri, a plant endemic to the Himalayas, as potential anti-inflammatory agents” (Eur J Med Chem, 2011).
